In series [1] the target is T1, α1G T-type calcium channel (Homo sapiens, UniProt O43497).
T1 construct: host or cells: HEK293
The series is described as follows: Assay for % inhibiting activity against T-type calcium channel using FDSS6000. The format is cell-based. Particulars: HEK293 cells expressing α1G; for inhibition at 10 µM: HEK293, 10 μM. How it is done:
In the present invention, in order to search an efficient inhibitor against T-type calcium channel, a primary assay for T-type calcium channel inhibiting activity was conducted by a high-efficient assay using FDSS6000, wherein mammal HEK293 cell lines (originated from human kidney carcinoma cells) which specifically expresses α1G of T-type calcium channel was used for primary assay. Through the primary assay, compounds which show meaningful inhibition effects were selected. The selected compounds were used in a second assay for T-type calcium channel inhibiting activity using electrophysiological whole cell patch clamp method, wherein mammal HEK293 cell lines (originated from human kidney carcinoma cells) which specifically expresses α1G of T-type calcium channel was used for the second assay.
At 12-24 hours before being used for this assay, cells of HEK293 cell line (α1G cell line: KCTC 10519BP, Korean Collection for Type Cultures), which stably express α1G T-type calcium channel and Kir2.1, were sub-cultured in a poly-L-lysine treated 96-well plate with the density of 4×10^4 per a well using a 96-well cell dispenser (Titertek). On the of assay, the 96-well plate to which the cells were attached were washed three times with HEPES buffer solution (150 mM of NaCl, 5 mM of KCl, 1 mM of MgCl2, 2 mM of CaCl2, 10 mM of HEPES, 10 mM of glucose; pH 7.4) using a 96-well plate automatic washing device (Bio Tek), then reacted with HEPES buffer solution containing 5 μM fluo-3/AM and 0.001% Pluronic F-127 under room temperature for 1 hour, to label with fluorescent dye, and then further washed two times with HEPES buffer solution.
Thereafter, at 10 minutes before the measurement using device FDSS6000, a washing with HEPES buffer solution containing 10 mM CaCl2 was conducted once more, and the final volume was adjusted to 81 μl. Besides the above 96-well plate containing the cells, additional two drug 96-well plates were provided, wherein the 96-well plates contain inhibiting drug and KCl (final concentration: 75 mM) for activating T-type calcium channel, respectively. Since most of cell-based HTS devices are equipped with a liquid application system for injection of drug, but have no liquid sucking system, the inhibiting drug to be tested and KCl were respectively provided at the five-times higher concentration in 10 mM CaCl2 HEPES buffer solution at the amount of 27 μl, diluted five-times at the final cell plate volume of 135 μl, and then used in this test. The concrete method of measurement using FDSS6000 was as follows: After recording the reference value of 20 seconds, the change of intracellular Ca^2+ concentration which induced by treatment of the inhibiting drug to be tested for 75 seconds followed by administration of KCl was measured, wherein the percentage (%) inhibition effect of the test drug, through estimating the area of ratio value of 340/380 in the control without treatment of the test drug as 100%. As a reference drug, mibefradil was used.
For accurate calcium-imagination, the light source of 4 xenon lamps in FDSS6000 were radiated to make the cells exposed selectively to the excitation wavelength (340 nm and 380 nm) by computer-controlled filter wheel. Data was obtained at interval of each 1.23 second. The emitter fluorescence light inflowed through long-pass filter was obtained as an average 340/380 ratio value for each well in the 96-wells by using CCD camera and digital fluorescence analyzer in FDSS6000. All image data and analyses were obtained by using FDSS6000-exclusive program provide from Hamamatsu Photonics.

Where [2] appears, read: Table 4 (Chemical Formula 3 series).
Setting [3] is: Table 3 (Chemical Formula 2 series), hydrochloride.
Where [4] appears, read: Table 3 (Chemical Formula 2 series).

Molecules are shown by their SMILES. Counter-ions that a name gives are not always drawn.

T1 sequence (O43497 whole entry): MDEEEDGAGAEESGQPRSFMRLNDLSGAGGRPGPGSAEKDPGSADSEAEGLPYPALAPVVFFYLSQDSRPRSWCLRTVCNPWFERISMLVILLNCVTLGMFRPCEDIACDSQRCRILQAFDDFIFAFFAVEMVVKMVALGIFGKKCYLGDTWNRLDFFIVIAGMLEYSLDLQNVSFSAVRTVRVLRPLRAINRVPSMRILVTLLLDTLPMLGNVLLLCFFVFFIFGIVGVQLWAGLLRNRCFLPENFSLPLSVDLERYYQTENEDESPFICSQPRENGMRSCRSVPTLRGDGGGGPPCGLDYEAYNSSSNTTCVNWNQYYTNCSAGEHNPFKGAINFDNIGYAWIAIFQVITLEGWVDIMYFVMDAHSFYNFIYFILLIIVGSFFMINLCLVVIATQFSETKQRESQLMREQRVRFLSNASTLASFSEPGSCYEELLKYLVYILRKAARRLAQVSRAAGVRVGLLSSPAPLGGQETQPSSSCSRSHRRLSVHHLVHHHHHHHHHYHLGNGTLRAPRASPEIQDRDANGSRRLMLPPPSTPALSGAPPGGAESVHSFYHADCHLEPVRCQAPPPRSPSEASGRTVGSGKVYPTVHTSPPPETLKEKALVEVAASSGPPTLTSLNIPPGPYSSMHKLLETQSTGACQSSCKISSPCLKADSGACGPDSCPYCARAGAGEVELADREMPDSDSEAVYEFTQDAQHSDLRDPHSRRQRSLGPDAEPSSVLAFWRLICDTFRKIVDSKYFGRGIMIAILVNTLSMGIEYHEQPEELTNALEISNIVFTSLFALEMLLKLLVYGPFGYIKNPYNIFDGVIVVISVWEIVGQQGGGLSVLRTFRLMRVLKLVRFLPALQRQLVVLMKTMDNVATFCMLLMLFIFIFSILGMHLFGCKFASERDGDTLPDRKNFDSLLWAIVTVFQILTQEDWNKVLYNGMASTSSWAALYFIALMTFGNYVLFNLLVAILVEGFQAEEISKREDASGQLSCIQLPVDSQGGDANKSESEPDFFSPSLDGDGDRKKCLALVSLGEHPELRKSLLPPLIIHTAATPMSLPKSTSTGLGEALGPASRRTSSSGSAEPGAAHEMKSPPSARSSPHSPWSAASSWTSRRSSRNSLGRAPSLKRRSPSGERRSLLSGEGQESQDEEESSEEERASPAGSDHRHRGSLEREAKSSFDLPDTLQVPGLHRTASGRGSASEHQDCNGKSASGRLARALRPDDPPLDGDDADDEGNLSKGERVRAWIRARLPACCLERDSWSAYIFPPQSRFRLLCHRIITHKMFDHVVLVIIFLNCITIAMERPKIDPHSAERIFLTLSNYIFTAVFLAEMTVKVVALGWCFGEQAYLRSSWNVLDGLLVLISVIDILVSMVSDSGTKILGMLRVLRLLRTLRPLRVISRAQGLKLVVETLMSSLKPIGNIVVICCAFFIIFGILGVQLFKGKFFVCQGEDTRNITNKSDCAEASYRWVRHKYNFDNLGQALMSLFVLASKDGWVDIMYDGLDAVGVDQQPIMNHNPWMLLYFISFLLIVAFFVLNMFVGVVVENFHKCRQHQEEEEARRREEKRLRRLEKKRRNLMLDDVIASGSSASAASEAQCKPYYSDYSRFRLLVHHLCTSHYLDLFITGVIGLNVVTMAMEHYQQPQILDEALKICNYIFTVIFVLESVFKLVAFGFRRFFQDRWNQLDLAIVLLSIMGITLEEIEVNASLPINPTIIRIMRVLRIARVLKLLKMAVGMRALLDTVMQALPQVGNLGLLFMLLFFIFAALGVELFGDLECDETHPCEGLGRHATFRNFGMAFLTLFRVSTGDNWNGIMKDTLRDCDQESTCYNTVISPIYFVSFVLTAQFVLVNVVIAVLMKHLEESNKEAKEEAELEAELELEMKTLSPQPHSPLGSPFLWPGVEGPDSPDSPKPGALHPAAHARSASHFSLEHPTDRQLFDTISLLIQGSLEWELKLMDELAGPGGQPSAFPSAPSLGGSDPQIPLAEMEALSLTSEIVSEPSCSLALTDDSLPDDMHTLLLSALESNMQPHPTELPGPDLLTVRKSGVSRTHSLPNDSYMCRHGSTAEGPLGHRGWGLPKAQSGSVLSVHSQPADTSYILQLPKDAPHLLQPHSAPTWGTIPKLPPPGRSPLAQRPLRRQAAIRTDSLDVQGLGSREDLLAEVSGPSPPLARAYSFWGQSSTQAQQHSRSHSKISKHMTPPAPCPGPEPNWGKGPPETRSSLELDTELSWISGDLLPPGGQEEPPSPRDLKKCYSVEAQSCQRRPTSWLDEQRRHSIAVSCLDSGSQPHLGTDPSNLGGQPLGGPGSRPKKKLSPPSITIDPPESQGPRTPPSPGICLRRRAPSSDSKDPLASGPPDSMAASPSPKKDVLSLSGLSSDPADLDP

For orientation: inhibition means the relative decrease from the control value, in per cent. Regarding `NC(N)=Nc1nc(-c2cc(C(F)(F)F)cc(C(F)(F)F)c2)cs1` [KHG24392, 2-(4-(3,5-bis(trifluoromethyl)phenyl)thiazole-2-yl)guanidine hydrobromide], the inhibition at 10 µM in series [1] (setting [2]) was determined as 12.9%.
In general, melting point refers to the temperature of the solid-liquid transition. `Cc1ccc(NC(=O)Cc2csc(N=C(N)N)n2)cc1Cl.Cl` [KHG23170, N-(3-chloro-4-methylphenyl)-2-(2-(diaminomethyleneamino)thiazole-4-yl)acetamide hydrochloride] gave a melting point of 238.6 to 240.4 °C. Further, in series [1] (setting [3]), the “% Inhibition [α1G, 10 μM) using FDSS6000” value is 30.68%.
For `COc1ccc(NC(=O)Cc2csc(N=C(N)N)n2)cc1F.Cl` [KHG23399, 2-(2-(diaminomethyleneamino)thiazole-4-yl)-N-(3-fluoro-4-methoxyphenyl)acetamide hydrochloride], in series [1] (setting [3]), the “% Inhibition [α1G, 10 μM) using FDSS6000” value came out at 3.4%.
Consider `NC(N)=Nc1nc(CC(=O)Nc2c(Cl)cc(C(F)(F)F)cc2Cl)cs1` [KHG23391, 2-(2-(diaminomethyleneamino)thiazole-4-yl)-N-(2,6-dichloro-4-(trifluoromethyl)phenyl)acetamide hydrochloride], for which, in series [1] (setting [4]), the inhibition at 10 µM came to 0.8%.
`NC(N)=Nc1nc(CC(=O)Nc2cc([N+](=O)[O-])ccc2F)cs1` [KHG23168, 2-(2-(diaminomethyleneamino)thiazole-4-yl)-N-(2-fluoro-5-nitrophenyl)acetamide hydrochloride]: the inhibition at 10 µM in series [1] (setting [4]) is 21.6%.
Consider `Cc1ccc(-c2csc(N=C(N)N)n2)cc1` [KHG24040, 2-(4-p-tolylthiazole-2-yl)guanidine hydrobromide], for which the inhibition at 10 µM in series [1] (setting [2]) turned out to be 16.2%.
For `NC(N)=Nc1nc(-c2ccc([N+](=O)[O-])cc2)cs1` [KHG24389, 2-(4-(4-nitrophenyl)thiazole-2-yl)guanidine hydrobromide], the inhibition at 10 µM in series [1] (setting [2]) is 21.9%.
On to `Cc1nc(N=C(N)N)sc1Cc1ccc(F)cc1.Cl`, for which the melting point is 245.6 °C.
Consider `NC(N)=Nc1nc(CC(=O)Nc2ccc([N+](=O)[O-])cc2)cs1` [KHG23380, 2-(2-(diaminomethyleneamino)thiazole-4-yl)-N-(4-nitrophenyl)acetamide hydrochloride], for which, in series [1] (setting [4]), the inhibition at 10 µM amounted to 11.4%.
For the compound `CCCCOc1ccc(NC(=O)Cc2csc(N=C(N)N)n2)cc1` [KHG23384, N-(4-butoxyphenyl)-2-(2-(diaminomethyleneamino)thiazole-4-yl)acetamide hydrochloride], the inhibition at 10 µM in series [1] (setting [4]) is 6.1%.
For `NC(N)=Nc1nc(CC(=O)Nc2ccc(Oc3ccccc3)cc2)cs1` [KHG23389, 2-(2-(diaminomethyleneamino)thiazole-4-yl)-N-(4-phenoxyphenyl)acetamide hydrochloride], in series [1] (setting [4]), the inhibition at 10 µM was determined as 25.4%.
`COc1ccc(NC(=O)Cc2csc(N=C(N)N)n2)c(C)c1` [KHG23393, 2-(2-(diaminomethyleneamino)thiazole-4-yl)-N-(4-methoxy-2-methylphenyl)acetamide hydrochloride]: in series [1] (setting [4]), the inhibition at 10 µM amounted to 3.8%.
As to `N#CCc1ccc(NC(=O)Cc2csc(N=C(N)N)n2)cc1` [KHG23387, N-(4-(cyanomethyl)phenyl)-2-(2-(diaminomethyleneamino)thiazole-4-yl)acetamide hydrochloride], the inhibition at 10 µM in series [1] (setting [4]) turned out to be 3.2%.
As to `NC(N)=Nc1nc(CC(=O)Nc2cc(C(F)(F)F)cc(C(F)(F)F)c2)cs1` [KHG23394, N-(3,5-bis(trifluoromethyl)phenyl)-2-(2-(diaminomethyleneamino)thiazole-4-yl)acetamide hydrochloride], in series [1] (setting [4]), the inhibition at 10 µM came to 41.5%.
`CCCCCCc1ccc(NC(=O)Cc2csc(N=C(N)N)n2)cc1` [KHG23383, 2-(2-(diaminomethyleneamino)thiazole-4-yl)-N-(4-hexylphenyl)acetamide hydrochloride]: the inhibition at 10 µM in series [1] (setting [4]) was found to be 5.7%.
For `NC(N)=Nc1nc(-c2ccc3ccccc3c2)cs1` [KHG24039, 2-(4-(naphthalene-2-yl)thiazole-2-yl)guanidine hydrochloride], the inhibition at 10 µM in series [1] (setting [2]) came out at 21.9%.
For `NC(N)=Nc1nc(CC(=O)Nc2c(Cl)c(Cl)cc(Cl)c2Cl)cs1` [KHG23395, 2-(2-(diaminomethyleneamino)thiazole-4-yl)-N-(2,3,5,6-tetrachlorophenyl)acetamide hydrochloride], the inhibition at 10 µM in series [1] (setting [4]) amounted to 2.7%.
Consider `COc1ccc(-c2csc(N=C(N)N)n2)cc1` [KHG24041, 2-(4-(4-methoxyphenyl)thiazole-2-yl)guanidine hydrobromide], for which the inhibition at 10 µM in series [1] (setting [2]) stood at 13.3%.
On to `CCOC(=O)c1cccc(NC(=O)Cc2csc(N=C(N)N)n2)c1` [KHG23382, ethyl 3-(2-(2-(diaminomethyleneamino)thiazole-4-yl)acetamido)benzoate hydrochloride], for which the inhibition at 10 µM in series [1] (setting [4]) came to 24%.
As to `NC(N)=Nc1nc(CC(=O)Nc2ccc(F)c(F)c2F)cs1` [KHG23392, 2-(2-(diaminomethyleneamino)thiazole-4-yl)-N-(2,3,4-trifluorophenyl)acetamide hydrochloride], in series [1] (setting [4]), the inhibition at 10 µM was 22.7%.
Turning to `CCCCCCc1ccc(NC(=O)Cc2csc(N=C(N)N)n2)cc1.Cl` [KHG23386, 2-(2-(diaminomethyleneamino)thiazole-4-yl)-N-(4-hexylphenyl)acetamide hydrochloride], in series [1] (setting [3]), the “% Inhibition [α1G, 10 μM) using FDSS6000” value is reported as 4.5%.
As to `NC(N)=Nc1nc(CC(=O)Nc2c(Cl)cc(OC(F)(F)F)cc2Cl)cs1` [KHG23398, 2-(2-(diaminomethyleneamino)thiazole-4-yl)-N-(2,6-dichloro-4-(trifluoromethoxy)phenyl)acetamide hydrochloride], the inhibition at 10 µM in series [1] (setting [4]) amounted to 0.2%.
With `NC(N)=Nc1nc(CC(=O)NCCc2ccc(F)cc2)cs1` [KHG23190, 2-(2-(diaminomethyleneamino)thiazole-4-yl)-N-(4-fluorophenethyl)acetamide hydrochloride], in series [1] (setting [4]), the inhibition at 10 µM came out at 21%.
Turning to `CCCCCCCCCCc1ccc(NC(=O)Cc2csc(N=C(N)N)n2)cc1` [KHG23381, N-(4-decylphenyl)-2-(2-(diaminomethyleneamino)thiazole-4-yl)acetamide hydrochloride], the inhibition at 10 µM in series [1] (setting [4]) is 6.2%.
Take `Cc1ccc(NC(=O)Cc2csc(N=C(N)N)n2)cc1Cl.Cl` [KHG23397, N-(3-chloro-4-methylphenyl)-2-(2-(diaminomethyleneamino)thiazole-4-yl)acetamide hydrochloride]: the “% Inhibition [α1G, 10 μM) using FDSS6000” value in series [1] (setting [3]) turned out to be 14.2%.
With `CC(C)c1ccc(NC(=O)Cc2csc(N=C(N)N)n2)cc1` [KHG23379, 2-(2-(diaminomethyleneamino)thiazole-4-yl)-N-(4-isopropylphenyl)acetamide hydrochloride], the inhibition at 10 µM in series [1] (setting [4]) came out at 14.7%.
Same read-out and setting: then `CCOC(=O)c1ccc(NC(=O)Cc2csc(N=C(N)N)n2)cc1` [KHG23385, ethyl 4-(2-(2-(diaminomethyleneamino)thiazole-4-yl)acetamido)benzoate hydrochloride], with 5.9%.
Take `Br.NC(N)=Nc1nc(-c2ccc([N+](=O)[O-])cc2)cs1` [KHG24375, 2-(4-(4-nitrophenyl)thiazole-2-yl)guanidine hydrobromide]: the “% Inhibition [α1G, 10 μM) using FDSS6000” value in series [1] (Table 4 (Chemical Formula 3 series), hydrobromide) was 19.90%.
For `NC(N)=Nc1nc(-c2ccc3[nH]c(=O)oc3c2)cs1` [KHG24022, 2-(4-(2-oxo-2,3-dihydrobenzo[d]oxazole-6-yl)thiazole-2-yl)guanidine hydrochloride], the inhibition at 10 µM in series [1] (setting [2]) amounted to 10.1%.

For the origin of these results see patent publication US8143296B2, “Thiazole-based compound and inhibitor of T-type calcium channel containing the same” (Korea Institute of Science and Technology, priority 2006, dated 2012).
